Results from US20230278972A1, “SUBSTITUTED HALOALKYL SULFONANILIDE HERBICIDES” (FMC Corporation, priority 2020, published 2023).

What was measured:
Type in all cases: in vivo
[1] = system: barnyardgrass (Echinochloa crus-galli); experiment: Test A preemergence, barnyardgrass; details: Preemergence; for Barnyardgrass plant response rating: 125 g ai/ha, visual injury on 0 to 100 scale (0 no effect, 100 complete control), approximately 10 days; for Plant response rating, Barnyardgrass: 0 to 100 scale (0 no effect, 100 complete control)
Summary of the method: (§1)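 Whole-plant herbicidal screen in pots of loam blended with sand. Sprays used a surfactant-containing, non-phytotoxic solvent vehicle. Timing was preemergence soil-directed at planting or postemergence at the one- to two-leaf stage (2–10 cm).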

kochia (Bassia scoparia) [2] = experiment: Test A preemergence, kochia; details: Preemergence; for Kochia plant response rating: 125 g ai/ha, visual injury on 0 to 100 scale (0 no effect, 100 complete control), approximately 10 days; for Plant response rating, Kochia: 0 to 100 scale (0 no effect, 100 complete control)
Summary of the method: as §1

[3] = system: ragweed (common ragweed, Ambrosia artemisiifolia); experiment: Test A preemergence, ragweed; details: Preemergence; for Ragweed plant response rating: 125 g ai/ha, visual injury on 0 to 100 scale (0 no effect, 100 complete control), approximately 10 days; for Plant response rating, Ragweed: 0 to 100 scale (0 no effect, 100 complete control)
Summary of the method: as §1

[4] = system: Ryegrass, Italian (Italian ryegrass, Lolium multiflorum); experiment: Test A preemergence, Ryegrass, Italian; details: Preemergence; for Ryegrass, Italian plant response rating: 125 g ai/ha, visual injury on 0 to 100 scale (0 no effect, 100 complete control), approximately 10 days; for Plant response rating, Ryegrass, Italian: 0 to 100 scale (0 no effect, 100 complete control)
Summary of the method: as §1

[5] = system: Foxtail, Giant (giant foxtail, Setaria faberi); experiment: Test A preemergence, Foxtail, Giant; details: Preemergence; for Foxtail, Giant plant response rating: 125 g ai/ha, visual injury on 0 to 100 scale (0 no effect, 100 complete control), approximately 10 days; for Plant response rating, Foxtail, Giant: 0 to 100 scale (0 no effect, 100 complete control)
Summary of the method: as §1

[6] = system: pigweed (Amaranthus retroflexus); experiment: Test A preemergence, pigweed; details: for Pigweed plant response rating: 125 g ai/ha, visual injury on 0 to 100 scale (0 no effect, 100 complete control), approximately 10 days; for Plant response rating, Pigweed: 0 to 100 scale (0 no effect, 100 complete control)
Summary of the method: (§2)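 Greenhouse pot test in a loam–sand blend; compounds delivered in a non-phytotoxic solvent carrying a surfactant, applied either as a directed spray to soil at seeding or over seedlings 2 to 10 cm high with one to two leaves.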

[7] = system: barnyardgrass (Echinochloa crus-galli); experiment: Test A postemergence, barnyardgrass; details: Postemergence, 0 to 100 scale (0 no effect, 100 complete control); for Barnyardgrass plant response rating: 500 g ai/ha, visual injury vs untreated controls after approx. 10 days
Summary of the method: as §2

kochia (Bassia scoparia) [8] = experiment: Test A postemergence, kochia; details: Postemergence, 0 to 100 scale (0 no effect, 100 complete control); for Kochia plant response rating: 500 g ai/ha, visual injury vs untreated controls after approx. 10 days
Summary of the method: as §1

[9] = system: ragweed (common ragweed, Ambrosia artemisiifolia); experiment: Test A postemergence, ragweed; details: Postemergence, 0 to 100 scale (0 no effect, 100 complete control); for Ragweed plant response rating: 500 g ai/ha, visual injury vs untreated controls after approx. 10 days
Summary of the method: as §1

[10] = system: Ryegrass, Italian (Italian ryegrass, Lolium multiflorum); experiment: Test A postemergence, Ryegrass, Italian; details: Postemergence, 0 to 100 scale (0 no effect, 100 complete control); for Ryegrass, Italian plant response rating: 500 g ai/ha, visual injury vs untreated controls after approx. 10 days
Summary of the method: as §1

[11] = system: Foxtail, Giant (giant foxtail, Setaria faberi); experiment: Test A postemergence, Foxtail, Giant; details: Postemergence, 0 to 100 scale (0 no effect, 100 complete control); for Foxtail, Giant plant response rating: 500 g ai/ha, visual injury vs untreated controls after approx. 10 days
Summary of the method: as §1

[12] = system: pigweed (Amaranthus retroflexus); experiment: Test A postemergence, pigweed; details: Postemergence, 0 to 100 scale (0 no effect, 100 complete control); for Pigweed plant response rating: 500 g ai/ha, visual injury vs untreated controls after approx. 10 days
Summary of the method: as §1

[13] = system: wheat (Triticum aestivum); experiment: Test A postemergence, wheat; details: Postemergence, 0 to 100 scale (0 no effect, 100 complete control); for Wheat plant response rating: 500 g ai/ha, visual injury vs untreated controls after approx. 10 days
Summary of the method: as §2

corn (Zea mays) = experiment: Test A postemergence, corn; details: Postemergence, 0 to 100 scale (0 no effect, 100 complete control); for Corn plant response rating: 500 g ai/ha, visual injury vs untreated controls after approx. 10 days
Summary of the method: as §1

[14] = system: blackgrass (Alopecurus myosuroides); experiment: Test A postemergence, blackgrass; details: Postemergence, 0 to 100 scale (0 no effect, 100 complete control); for Blackgrass plant response rating: 500 g ai/ha, visual injury vs untreated controls after approx. 10 days
Summary of the method: as §1

[15] = system: galium (catchweed bedstraw, Galium aparine); experiment: Test A postemergence, galium; details: Postemergence, 0 to 100 scale (0 no effect, 100 complete control); for Galium plant response rating: 500 g ai/ha, visual injury vs untreated controls after approx. 10 days
Summary of the method: as §2

[16] = 125 g ai/ha, visual injury approx. 10 days
[17] = 31 g ai/ha, visual injury, approx. 10 days

`CCCn1nccc(-c2cc(NS(=O)(=O)C(F)(F)F)c(C)cc2C)c1=O` [Compound 58] was tested, and the “Barnyardgrass plant response rating” value [1] was 100, the “Plant response rating, Barnyardgrass” value ([1]; 500 g ai/ha) was 100 and the “Kochia plant response rating” value (kochia (Bassia scoparia) [2]) was 0. The “Plant response rating, Kochia” value (kochia (Bassia scoparia) [2]; 500 g ai/ha) was 80, the “Ragweed plant response rating” value [3] was 0 and the “Plant response rating, Ragweed” value ([3]; 500 g ai/ha) was 0. For the same compound, the “Ryegrass, Italian plant response rating” value [4] was 70, the “Plant response rating, Ryegrass, Italian” value ([4]; 500 g ai/ha) was 100 and the “Foxtail, Giant plant response rating” value [5] was 100. For the same compound, the “Plant response rating, Foxtail, Giant” value ([5]; 500 g ai/ha) was 100, the “Pigweed plant response rating” value [6] was 0 and the “Plant response rating, Pigweed” value ([6]; 500 g ai/ha) was 50. The “Plant response rating, Barnyardgrass” value [7, 16] was 20, the “Barnyardgrass plant response rating” value [7] was 90 and the “Plant response rating, Kochia” value (kochia (Bassia scoparia) [8]; [16]) was 0. For the same compound, the “Kochia plant response rating” value (kochia (Bassia scoparia) [8]) was 20, the “Plant response rating, Ragweed” value [9, 16] was 0 and the “Ragweed plant response rating” value [9] was 20. The “Plant response rating, Ryegrass, Italian” value [10, 16] was 0, the “Ryegrass, Italian plant response rating” value [10] was 60 and the “Plant response rating, Foxtail, Giant” value [11, 16] was 30. The “Foxtail, Giant plant response rating” value [11] was 90, the “Plant response rating, Pigweed” value [12, 16] was 0 and the “Pigweed plant response rating” value [12] was 0. For the same compound, the “Plant response rating, Wheat” value [13, 16] was 20, the “Wheat plant response rating” value [13] was 70 and the “Plant response rating, Corn” value (corn (Zea mays); [16]) was 20. The “Corn plant response rating” value (corn (Zea mays)) was 50, the “Plant response rating, Blackgrass” value [14, 16] was 0 and the “Blackgrass plant response rating” value [14] was 30. The “Plant response rating, Galium” value [15, 16] was 80 and the “Galium plant response rating” value [15] was 90.
With `COC1CCCN(C(=O)c2cc(N(C(=O)C(C)C)S(=O)(=O)C(F)(F)F)c(C)cc2C)C1` (stereo not drawn) [Compound 91] the “Plant response rating, Barnyardgrass” value [1, 17] was 0, the “Barnyardgrass plant response rating” value [1] was 90 and the “Plant response rating, Kochia” value (kochia (Bassia scoparia) [2]; [17]) was 0. The “Kochia plant response rating” value (kochia (Bassia scoparia) [2]) was 60, the “Plant response rating, Ragweed” value [3, 17] was 0 and the “Ragweed plant response rating” value [3] was 20. For the same compound, the “Plant response rating, Ryegrass, Italian” value [4, 17] was 30, the “Ryegrass, Italian plant response rating” value [4] was 50 and the “Plant response rating, Foxtail, Giant” value [5, 17] was 20. For the same compound, the “Foxtail, Giant plant response rating” value [5] was 100, the “Plant response rating, Pigweed” value [6, 17] was 60 and the “Pigweed plant response rating” value [6] was 100. The “Plant response rating, Barnyardgrass” value ([7]; 31 g ai/ha) was 0, the “Plant response rating, Barnyardgrass” value [7, 16] was 0 and the “Plant response rating, Kochia” value (kochia (Bassia scoparia) [8]; 31 g ai/ha) was 10. For the same compound, the “Plant response rating, Kochia” value (kochia (Bassia scoparia) [8]; [16]) was 10, the “Plant response rating, Ragweed” value ([9]; 31 g ai/ha) was 0 and the “Plant response rating, Ragweed” value [9, 16] was 40. For the same compound, the “Plant response rating, Ryegrass, Italian” value ([10]; 31 g ai/ha) was 0, the “Plant response rating, Ryegrass, Italian” value [10, 16] was 10 and the “Plant response rating, Foxtail, Giant” value ([11]; 31 g ai/ha) was 0. For the same compound, the “Plant response rating, Foxtail, Giant” value [11, 16] was 10, the “Plant response rating, Pigweed” value ([12]; 31 g ai/ha) was 0 and the “Plant response rating, Pigweed” value [12, 16] was 40. The “Plant response rating, Wheat” value ([13]; 31 g ai/ha) was 10, the “Plant response rating, Wheat” value [13, 16] was 60 and the “Plant response rating, Corn” value (corn (Zea mays); 31 g ai/ha) was 0. For the same compound, the “Plant response rating, Corn” value (corn (Zea mays); [16]) was 0, the “Plant response rating, Blackgrass” value ([14]; 31 g ai/ha) was 0 and the “Plant response rating, Blackgrass” value [14, 16] was 0. The “Plant response rating, Galium” value ([15]; 31 g ai/ha) was 70 and the “Plant response rating, Galium” value [15, 16] was 70.
For `Cc1cc(C)c(N(S(=O)(=O)C(F)(F)F)S(=O)(=O)C(F)(F)F)cc1C1=NOC2(CCC(C)(C)CC2)C1` [Compound 139], the “Barnyardgrass plant response rating” value [1] was 0, the “Plant response rating, Barnyardgrass” value ([1]; 500 g ai/ha) was 30 and the “Kochia plant response rating” value (kochia (Bassia scoparia) [2]) was 0. For the same compound, the “Plant response rating, Kochia” value (kochia (Bassia scoparia) [2]; 500 g ai/ha) was 60, the “Ragweed plant response rating” value [3] was 0 and the “Plant response rating, Ragweed” value ([3]; 500 g ai/ha) was 30. The “Ryegrass, Italian plant response rating” value [4] was 50, the “Plant response rating, Ryegrass, Italian” value ([4]; 500 g ai/ha) was 70 and the “Foxtail, Giant plant response rating” value [5] was 0. The “Plant response rating, Foxtail, Giant” value ([5]; 500 g ai/ha) was 20, the “Pigweed plant response rating” value [6] was 20 and the “Plant response rating, Pigweed” value ([6]; 500 g ai/ha) was 70. For the same compound, the “Plant response rating, Barnyardgrass” value [7, 16] was 0, the “Barnyardgrass plant response rating” value [7] was 0 and the “Plant response rating, Kochia” value (kochia (Bassia scoparia) [8]; [16]) was 0. The “Kochia plant response rating” value (kochia (Bassia scoparia) [8]) was 50, the “Plant response rating, Ragweed” value ([9]; 125 g ai/ha) was 0 and the “Ragweed plant response rating” value [9] was 0. For the same compound, the “Plant response rating, Ryegrass, Italian” value ([10]; 125 g ai/ha) was 0, the “Ryegrass, Italian plant response rating” value [10] was 0 and the “Plant response rating, Foxtail, Giant” value [11, 16] was 0. The “Foxtail, Giant plant response rating” value [11] was 0, the “Plant response rating, Pigweed” value ([12]; 125 g ai/ha) was 40 and the “Pigweed plant response rating” value [12] was 80. The “Plant response rating, Wheat” value ([13]; 125 g ai/ha) was 0, the “Wheat plant response rating” value [13] was 0 and the “Plant response rating, Corn” value (corn (Zea mays); [16]) was 0. The “Corn plant response rating” value (corn (Zea mays)) was 0, the “Plant response rating, Blackgrass” value [14, 16] was 0 and the “Blackgrass plant response rating” value [14] was 0. For the same compound, the “Plant response rating, Galium” value [15, 16] was 50 and the “Galium plant response rating” value [15] was 80.
